The source of these data is PubChem BioAssay AID330 (DTP/NCI, 2004).

For this assay, the system named is P388 leukemia ip, CD2F1 mice, survival T/C. Nature of the assay: NCI In Vivo Anticancer Drug Screen. Data for tumor model P388 Leukemia (intraperitoneal) in CD2F1 (CDF1) mice. To be noted: endpoint: median survival time, higher = longer survival. In short, it runs like this:
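Mice carrying the transplanted tumor received test compound or vehicle. Survival was recorded in each group, and the value is the treated-group measurement divided by that of the vehicle-treated control group.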

Setting [1] is: dose: 50.0 mg/kg/injection, schedule: Q01DX005 (ip), vehicle: saline with Tween-80.
Setting [2] is: dose: 100.0 mg/kg/injection, schedule: Q01DX005 (ip), vehicle: saline with Tween-80.
Where [3] appears, read: dose: 50.0 mg/kg/injection, schedule: Q01DX009 (ip), vehicle: saline with Tween-80.
Where [4] appears, read: dose: 100.0 mg/kg/injection, schedule: Q01DX009 (ip), vehicle: saline with Tween-80.
The mark [5] stands for this setting: dose: 200.0 mg/kg/injection, schedule: Q01DX009 (ip), vehicle: saline with Tween-80.
Setting [6] is: dose: 100.0 mg/kg/injection, schedule: Q01DX009 (ip), vehicle: Klucel (hydroxypropylcellulose) (HPC).
[7] abbreviates: dose: 50.0 mg/kg/injection, schedule: Q01DX005 (ip), vehicle: Klucel (hydroxypropylcellulose) (HPC).
The mark [8] stands for this setting: dose: 100.0 mg/kg/injection, schedule: Q01DX005 (ip), vehicle: Klucel (hydroxypropylcellulose) (HPC).
Where [9] appears, read: dose: 200.0 mg/kg/injection, schedule: Q01DX005 (ip), vehicle: Klucel (hydroxypropylcellulose) (HPC).
The mark [10] stands for this setting: dose: 50.0 mg/kg/injection, schedule: Q01DX005 (ip), vehicle: saline.
Setting [11] is: dose: 100.0 mg/kg/injection, schedule: Q01DX005 (ip), vehicle: saline.
Where [12] appears, read: dose: 100.0 mg/kg/injection, schedule: Q04DX003 (ip), vehicle: Klucel (hydroxypropylcellulose) (HPC).
The mark [13] stands for this setting: dose: 200.0 mg/kg/injection, schedule: Q04DX003 (ip), vehicle: Klucel (hydroxypropylcellulose) (HPC).
Setting [14] is: dose: 400.0 mg/kg/injection, schedule: Q04DX003 (ip), vehicle: Klucel (hydroxypropylcellulose) (HPC).
Setting [15] is: dose: 50.0 mg/kg/injection, schedule: Q04DX003 (ip), vehicle: saline with Tween-80.
[16] abbreviates: dose: 100.0 mg/kg/injection, schedule: Q04DX003 (ip), vehicle: saline with Tween-80.
The mark [17] stands for this setting: dose: 200.0 mg/kg/injection, schedule: Q01DX005 (ip), vehicle: saline with Tween-80.

Each structure is given as a SMILES string. Several values for one entry are separate records, joined by “and”; a condition that tells them apart may be missing. Identical values can stand only once. Toxic doses and inconclusive results are not listed.

Consider `c1ccc(-c2ccc[n+](CCC[n+]3cccc(-c4ccccn4)c3)c2)nc1`, for which the T/C is 114 % of control under setting [1] and 114 % of control under setting [2].

For `CCCC(O)(CCC)/C(C)=N/NC(N)=O`, the T/C is, setting by setting: under setting [3], 95 % of control; under setting [4], 97 % of control; under setting [5], 92 % of control.

In the case of `c1ccc(-c2csc(=[N+]3CCCCC3)s2)cc1`, the T/C (dose: 6.25 mg/kg/injection, schedule: Q01DX009 (ip), vehicle: water) is 111 % of control and 117 % of control and 124 % of control.

Regarding `O=C(O)CCC(=O)NCC1CCCC(CNC(=O)CCC(=O)O)C1` (configuration not stated), the T/C is 96 % of control (dose: 50.0 mg/kg/injection, schedule: Q01DX009 (ip), vehicle: Klucel (hydroxypropylcellulose) (HPC)); 110 % of control under setting [6]; 101 % of control (dose: 200.0 mg/kg/injection, schedule: Q01DX009 (ip), vehicle: Klucel (hydroxypropylcellulose) (HPC)).

`O=C(NC(Cc1ccc(Br)cc1)C(=O)O)c1ccc(Cl)cc1` (configuration not stated): the T/C runs as follows: under setting [7], 100 % of control; under setting [8], 100 % of control; under setting [9], 102 % of control.

Consider `COc1cc(NC(C)CN(CC(C)C)C(C)C)c2ncccc2c1` (configuration not stated), for which the T/C was 104 % of control under setting [10] and 98 % of control under setting [11].

As for `N#C/C(=C\c1ccccc1Cl)C(N)=S`, the T/C is, setting by setting: (dose: 50.0 mg/kg/injection, schedule: Q01DX009 (ip), vehicle: saline) 100 % of control; (dose: 100.0 mg/kg/injection, schedule: Q01DX009 (ip), vehicle: saline) 101 % of control; (dose: 200.0 mg/kg/injection, schedule: Q01DX009 (ip), vehicle: saline) 97 % of control.

For `CS/C(=C1/C(=O)N(c2ccccc2)N=C1c1ccccc1)N1CC1`, the T/C by setting is: under setting [12], 98 % of control; under setting [13], 94 % of control; under setting [14], 95 % of control.

`O=C1NC(=O)C2(CCCc3ccc(N(CCCl)CCCl)cc32)N1` (configuration not stated): the T/C by setting is: (dose: 0.38 mg/kg/injection, schedule: Q04DX003 (ip), vehicle: saline with Tween-80) 108 % of control; (dose: 0.75 mg/kg/injection, schedule: Q04DX003 (ip), vehicle: saline with Tween-80) 104 % of control; (dose: 1.5 mg/kg/injection, schedule: Q04DX003 (ip), vehicle: saline with Tween-80) 104 % of control; (dose: 12.5 mg/kg/injection, schedule: Q01DX009 (ip), vehicle: saline with Tween-80) 159 % of control; (dose: 25.0 mg/kg/injection, schedule: Q01DX009 (ip), vehicle: saline with Tween-80) 172 % of control; under setting [15], 181 % of control. Also, the T/C is, setting by setting: under setting [16], 181 % of control; (dose: 132.0 mg/kg/injection, schedule: Q04DX003 (ip), vehicle: saline with Tween-80) 177 % of control.

As for `C/C(N=NC(=S)N1CCN(c2ccccc2)CC1)=C1\C=CC=CN1O`, the T/C was 103 % of control under setting [1], 101 % of control under setting [2] and 103 % of control under setting [17].

Take `Cc1ccc[c]([Hg][Cl])c1N=Nc1ccccc1`: the T/C was 118 % of control (dose: 9.5 mg/kg/injection, schedule: Q01DX009 (ip), vehicle: saline with Tween-80) and 110 % of control (dose: 19.0 mg/kg/injection, schedule: Q01DX009 (ip), vehicle: saline with Tween-80).

For `O=C1CSC(c2cccc(Cl)c2)N1CCN1C(=O)CSC1c1cccc(Cl)c1` (configuration not stated), the T/C under setting [1] was 100 % of control, the T/C under setting [2] is 93 % of control and the T/C under setting [17] is 86 % of control.

Regarding `CN(C)CCCNC(=O)Cc1cc(O)c2c(c1O)C(=O)c1ccccc1C2=O`, the T/C is, setting by setting: (dose: 25.0 mg/kg/injection, schedule: Q04DX003 (ip), vehicle: saline with Tween-80) 106 % of control; under setting [15], 106 % of control; under setting [16], 104 % of control and 123 % of control; (dose: 200.0 mg/kg/injection, schedule: Q04DX003 (ip), vehicle: saline with Tween-80) 120 % of control and 95 % of control.

For the compound `CCOC(=O)C1CCC=CC1OC(C)=O` (configuration not stated), the T/C was 112 % of control (dose: 100.0 mg/kg/injection, schedule: Q01DX001 (ip), vehicle: olive oil, sesame oil, peanut oil); 108 % of control (dose: 200.0 mg/kg/injection, schedule: Q01DX001 (ip), vehicle: olive oil, sesame oil, peanut oil); 107 % of control (dose: 400.0 mg/kg/injection, schedule: Q01DX001 (ip), vehicle: olive oil, sesame oil, peanut oil).

In the case of `C/C=C(/C)c1cccc(OCc2ccccc2)c1OCc1ccccc1`, the T/C was 95 % of control under setting [3], 90 % of control under setting [4] and 106 % of control under setting [5].

Consider `CCO/C=C\Br`, for which the T/C runs as follows: (dose: 60.0 mg/kg/injection, schedule: Q01DX005 (ip), vehicle: saline with Tween-80) 105 % of control; (dose: 120.0 mg/kg/injection, schedule: Q01DX005 (ip), vehicle: saline with Tween-80) 99 % of control; (dose: 240.0 mg/kg/injection, schedule: Q01DX005 (ip), vehicle: saline with Tween-80) 100 % of control.

As for `NC(=O)c1[nH]cnc1/N=N/N(CCCl)Cc1ccccc1`, the T/C was 122 % of control (dose: 44.0 mg/kg/injection, schedule: Q01DX009 (ip), vehicle: Klucel (hydroxypropylcellulose) (HPC)); 196 % of control under setting [6]; 196 % of control (dose: 150.0 mg/kg/injection, schedule: Q01DX009 (ip), vehicle: Klucel (hydroxypropylcellulose) (HPC)); 182 % of control under setting [13]; 256 % of control under setting [14].

As for `Cc1ccc(S(=O)(=O)N(O)c2ccc(C)cc2C)cc1`, the T/C reads like this: under setting [1], 112 % of control; under setting [2], 107 % of control.

For the compound `CC(C)[C@@H](C)/C=C/[C@@H](C)[C@H]1CC[C@@H]2[C@]1(C)CC[C@H]1[C@]23C=C[C@]2(C[C@@H](O)CC[C@]12C)OO3`, the T/C by setting is: (dose: 3.75 mg/kg/injection, schedule: Q01DX005 (ip), vehicle: Klucel (hydroxypropylcellulose) (HPC)) 93 % of control; (dose: 7.5 mg/kg/injection, schedule: Q01DX005 (ip), vehicle: Klucel (hydroxypropylcellulose) (HPC)) 93 % of control; (dose: 15.0 mg/kg/injection, schedule: Q01DX005 (ip), vehicle: Klucel (hydroxypropylcellulose) (HPC)) 86 % of control; (dose: 25.0 mg/kg/injection, schedule: Q01DX005 (ip), vehicle: Klucel (hydroxypropylcellulose) (HPC)) 90 % of control; (dose: 30.0 mg/kg/injection, schedule: Q01DX005 (ip), vehicle: Klucel (hydroxypropylcellulose) (HPC)) 90 % of control; under setting [7], 89 % of control. The T/C reads like this: under setting [8], 86 % of control; under setting [9], 98 % of control.

Consider `CC1=CCC2C(C)(C)CCCC2(C)C1COC1OC(OCC2C(C)=CCC3C(C)(C)CCCC23C)C2C1=CCC1C(C)(C)CCCC21C` (configuration not stated), for which the T/C by setting is: (dose: 15.0 mg/kg/injection, schedule: Q01DX009 (ip), vehicle: Klucel (hydroxypropylcellulose) (HPC)) 96 % of control; (dose: 30.0 mg/kg/injection, schedule: Q01DX009 (ip), vehicle: Klucel (hydroxypropylcellulose) (HPC)) 102 % of control; (dose: 60.0 mg/kg/injection, schedule: Q01DX009 (ip), vehicle: Klucel (hydroxypropylcellulose) (HPC)) 93 % of control; (dose: 120.0 mg/kg/injection, schedule: Q01DX009 (ip), vehicle: Klucel (hydroxypropylcellulose) (HPC)) 94 % of control.

`OCC1(c2ccncc2)OCCO1`: the T/C is, setting by setting: under setting [10], 101 % of control; under setting [11], 104 % of control; (dose: 200.0 mg/kg/injection, schedule: Q01DX005 (ip), vehicle: saline) 92 % of control.

In the case of `CCOC(=O)Nc1ccc(OCC)cc1`, the T/C is 107 % of control under setting [12], 100 % of control under setting [13] and 92 % of control under setting [14].

As to `Cc1ccc(S(=O)(=O)OCC2(COS(=O)(=O)c3ccc(C)cc3)COC2)cc1`, the T/C was 107 % of control (dose: 50.0 mg/kg/injection, schedule: Q01DX001 (ip), vehicle: Klucel (hydroxypropylcellulose) (HPC)); 103 % of control (dose: 100.0 mg/kg/injection, schedule: Q01DX001 (ip), vehicle: Klucel (hydroxypropylcellulose) (HPC)); 100 % of control (dose: 200.0 mg/kg/injection, schedule: Q01DX001 (ip), vehicle: Klucel (hydroxypropylcellulose) (HPC)).
